Reference: patent US20020132281A1, “Secretases related to alzheimer's dementia” (priority 1998, published 2002)
Entries after “also recorded” stand apart in the source; their conditions may differ. Square brackets hold non-standard residues; d marks the D form. Peptide text beside a SMILES is read from it. * marks the point of attachment. Sta = CC(C)C[C@H](N)[C@@H](O)CC(=O)O; Isovaleryl = CC(C)CC(=O)*

Key:
[1] = tested on: β-secretase endoprotease activity in chromaffin vesicles; test: Effect of reducing agent DTT on β-secretase endoprotease activity in chromaffin vesicle lysate; format: biochemical, bovine; settings: 1 mM DTT vs absence of DTT; lysed vesicles
Experimental: The β-secretase endoprotease activity was identified by incubating the chromaffin vesicle lysate (2-10 μl of 10-20 mg protein/ml) with the Z*Val-Lys-Met-MCA substrate (100 μM final concentration) and detecting AMC fluorescence. The chromaffin vesicle lysate was prepared as described in Example I. The endoprotease activity was determined as a function of pH by varying the pH of the incubation solution between 3.0 to 8.0 in 0.5 pH increments. Citric acid, sodium phosphate, and Tris-HCl buffers (100 mM final concentration) were used to adjust the pH of the incubation solutions between 3.0 to 5.5, 6.0 to 7.5, and 8.0, respectively. […]
As discussed above, endoprotease cleavage between the Met-MCA bond in the Z*Val-Lys-Met-MCA substrate produces fluorescent AMC, but endoprotease cleavage between the Lys-Met or Val-Lys bonds in that substrate produces non-fluorescent Lys-Met-MCA and Met-MCA peptides. To insure that the latter two endoprotease cleavages were detected, aminopeptidase M (20 μg/ml final concentration, BOEHRINGER […]) was added to each incubation solutions to produce fluorescent AMC from the Lys-Met-MCA and Met-MCA peptides. […]
The effect of the reducing agent dithiothreitol (DTT) on β-secretase endoprotease activity was determined using the assay described in Example III. […]

[2] = tested on: β-secretase endoprotease activity; test: β-secretase endoprotease activity with/without DTT in fractions obtained during isolation of chromaffin vesicles; format: biochemical, bovine; settings: pH 5.5
Experimental: The effect of the reducing agent dithiothreitol (DTT) on β-secretase endoprotease activity was determined using the assay described in Example III. Briefly, the lysed vesicles were incubated with the substrate Z*Val-Lys-Met-MCA in the presence or absence of 1 mM DTT and the resulting fluorescence plotted as a function of pH. Both with and without DTT, β-secretase endoprotease activity was detected and in both cases that activity had pH optimum of about 4.0 to 6.0, which is consistent with the intravesicular pH of chromaffin vesicles.
The β-secretase endoprotease activity of fractions obtained during the isolation procedure described in Example I was determined at the pH optimum of 5.5, with and without DTT using the assay described in Example VII.

[3] = tested on: Peak I β-secretase endoprotease activity; test: Protease inhibitors of β-secretase endoprotease activity in Peak I; format: biochemical, bovine; settings: for Peak I (%) of control: control (no inhibitor) = 100
Experimental: (§1) The protease inhibitor was added to each assay at the start of the reaction at the appropriate concentration. The extent of inhibition was expressed as a percentage of the activity without the inhibitor (control).
(§2) The contents of the eluted Con-A bound fraction were fractioned according to molecular size using a Sephacryl S200 column (Krieger, T. K. and Hook, V. Y. H. ibid.) .

[4] = tested on: Peak II β-secretase endoprotease activity; test: Protease inhibitors of β-secretase endoprotease activity in Peak II; format: biochemical, bovine; settings: for Peak II (%) of control: control (no inhibitor) = 100
Experimental: as §1, §2

[5] = tested on: β-secretase endoprotease activity in chromaffin vesicle lysate; test: Protease inhibitors of β-secretase endoprotease activity in chromaffin vesicle lysate (Z*Val-Lys-Met-MCA cleavage, with aminopeptidase M); format: biochemical, bovine; settings: for inhibition of β-secretase endoprotease activity in the lysate, in words: chromaffin vesicle lysate; for % CONTROL (β-secretase endoprotease activity): pH 5.5, with aminopeptidase M, activity as % of no-inhibitor control
Experimental: The β-secretase endoprotease activity was identified by incubating the chromaffin vesicle lysate (2-10 μl of 10-20 mg protein/ml) with the Z*Val-Lys-Met-MCA substrate (100 μM final concentration) and detecting AMC fluorescence. The chromaffin vesicle lysate was prepared as described in Example I. The endoprotease activity was determined as a function of pH by varying the pH of the incubation solution between 3.0 to 8.0 in 0.5 pH increments. Citric acid, sodium phosphate, and Tris-HCl buffers (100 mM final concentration) were used to adjust the pH of the incubation solutions between 3.0 to 5.5, 6.0 to 7.5, and 8.0, respectively. Duplicate samples at each pH increment (100 μl each) were distributed among 22 wells in a covered microtiter well plate and incubated at 37° C. for 8 hours in a water bath.
As discussed above, endoprotease cleavage between the Met-MCA bond in the Z*Val-Lys-Met-MCA substrate produces fluorescent AMC, but endoprotease cleavage between the Lys-Met or Val-Lys bonds in that substrate produces non-fluorescent Lys-Met-MCA and Met-MCA peptides. To insure that the latter two endoprotease cleavages were detected, aminopeptidase M (20 μg/ml final concentration, BOEHRINGER […]) was added to each incubation solutions to produce fluorescent AMC from the Lys-Met-MCA and Met-MCA peptides. Prior to adding the aminopeptidase M, each incubation solution was adjusted to a pH 8.3 using Tris-HCl because aminopeptidase M functions at a basic pH. A second incubation at 37° C. for 1 hour in the water bath was conducted to complete the aminopeptidase M reaction.
Upon termination of that second incubation, AMC fluorescence was assayed using a fluorometer (IDEXX fluorometer, FCA Fluorescence Concentration Analyzer, cat. no. 10-105-2, BAXTER HEALTH CARE CORP., Mundelein, Ill.) at excitation and emission wavelengths of 365 and 450 nm, respectively. Standard AMC concentrations were also measured to quantitate relative fluorescence with the molar amount (pmol) of AMC generated by the secretase. The resulting AMC fluorescence reflects the endoprotease activity in cleaving either the Met-MCA, Lys-Met. and Val-Lys bonds in the Z*Val-Lys-Met-MCA substrate.
The effect of the aminopeptidase M and the basic pH buffer used in the β-secretase endoprotease activity assay was determined. The assay was conducted as described in Example VIII with DTT. Three assays were conducted, one with aminopeptidase M in its basic pH buffer, another with the basic pH buffer but not aminopeptidase M, and a third without either the buffer or the aminopeptidase M. Briefly, the chromaffin vesicle lysate and the substrate Z*Val-Lys-Met-MCA were incubated for 30 minutes at a specified pH and the resulting fluorescence measured. The aminopeptidase M in the basic pH buffer or that buffer alone (final concentration of 75 mM Tris-HCl pH 8.2) was added to the assay and incubated an additional 60 minutes at 37° C. […] The assay conducted with aminopeptidase M and its basic pH buffer and that of the control assay having just the basic pH buffer produced approximately the same amount of fluorescence.
The effect of various protease inhibitors on β-secretase endoprotease activity in the lysate was determined at the pH optimum 5.5 in the assay described in Example IX containing aminopeptidase M. Protease inhibitors specific for various protease classes were used. The protease inhibitor was added to each assay at the start of the reaction at the appropriate concentration. The extent of inhibition was expressed as a percentage of the activity without the inhibitor (control). Triplicate assays varied by less than 10%.

chromaffin cells = test: Aβ-peptide secretion by primary chromaffin cell cultures (RIA of Aβ1-40 in media); format: cell-based, bovine; settings: 15 minutes
Experimental: Primary chromaffin cell cultures containing approximately 2 million cells in each culture were produced using established methods (Hook et al., ibid.; and Tezapsidis et al., ibid.). Exocytosis of the contents of the vesicles in such cells was induced by exposing the cells to KCl (50 mM) or nicotine (10 μM) for 15 minutes.

O[C@H](CS)[C@H](O)CS (racemic) [DTT, dithiothreitol]
increase in the β-secretase endoprotease activity [1]: approximately 5 fold | RATIO of activities (with/without DTT) ([2]; Adrenal Medulla Homgenate): 4.7 | RATIO of activities (with/without DTT) ([2]; Pellet from 1st 8,800 rpm Centrifugation (crude vesicle fraction)): 3.2 | RATIO of activities (with/without DTT) ([2]; Pellet from 2nd 8,800 rpm Centrifugation (washed vesicle fraction)): 6.3 | RATIO of activities (with/without DTT) ([2]; Pellet from 1,500 rpm Centrifugation (nuclear fraction)): 11.6 | RATIO of activities (with/without DTT) ([2]; Pellet from 25,000 rpm Discontinuous Gradient Centrifugation (vesicle fraction)): 11.0

c1cnc2c(c1)ccc1cccnc12 [1,10 Phenanthroline]
inhibition of Peak I activity, in words [3]: significantly inhibited | Peak I (%) of control ([3]; inhibitor 500 μM): 31% | inhibition of Peak II activity, in words [4]: only slightly inhibited | Peak II (%) of control ([4]; inhibitor 500 μM): 72%

CC(C)C[C@H](NC(=O)[C@@H](NC(=O)N[C@@H](Cc1ccccc1)C(=O)O)[C@@H]1CCN=C(N)N1)C(=O)N[C@H](C=O)Cc1ccccc1 [Chymostatin]
inhibition of β-secretase endoprotease activity in the lysate, in words [5]: greatly inhibited | % CONTROL (β-secretase endoprotease activity) ([5]; inhibitor 10 μM): 11% | inhibition of Peak I activity, in words [3]: maximally inhibited; also recorded: inhibited less than that of the lysate | Peak I (%) of control ([3]; inhibitor 10 μM): 0% | inhibition of Peak II activity, in words [4]: maximally inhibited; also recorded: inhibited less than that of the lysate | Peak II (%) of control ([4]; inhibitor 10 μM): 35%

CC(C)CCNC(=O)[C@H](CC(C)C)NC(=O)[C@H]1O[C@@H]1C(=O)O [E64c]
inhibition of β-secretase endoprotease activity in the lysate, in words [5]: completely inhibited | % CONTROL (β-secretase endoprotease activity) ([5]; inhibitor 10 μM): 0% | inhibition of Peak I activity, in words [3]: maximally inhibited; also recorded: completely inhibited | Peak I (%) of control ([3]; inhibitor 10 μM): 0% | inhibition of Peak II activity, in words [4]: maximally inhibited; also recorded: completely inhibited | Peak II (%) of control ([4]; inhibitor 10 μM): 0%

O=C(O)CN(CCN(CC(=O)O)CC(=O)O)CC(=O)O [EDTA, ethylenediaminetetraacetic acid]
% CONTROL (β-secretase endoprotease activity) ([5]; inhibitor 1 mM): 100% | Peak I (%) of control ([3]; inhibitor 1 mM): 99% | Peak II (%) of control ([4]; inhibitor 1 mM): 138%

O=C(O)CN(CCOCCOCCN(CC(=O)O)CC(=O)O)CC(=O)O [EGTA]
% CONTROL (β-secretase endoprotease activity) ([5]; inhibitor 1 mM): 99% | Peak I (%) of control ([3]; inhibitor 1 mM): 108% | Peak II (%) of control ([4]; inhibitor 1 mM): 142%

[Cl-].[K+] [KCl, potassium chloride]
increase in the concentration of Aβ1-40 peptide in the media relative to control media (chromaffin cells; KCl 50 mM): approximately 350 fold

CC(=O)N[C@@H](CC(C)C)C(=O)N[C@@H](CC(C)C)C(=O)N[C@H](C=O)CCCNC(=N)N [Leupeptin]
inhibition of β-secretase endoprotease activity in the lysate, in words [5]: completely inhibited | % CONTROL (β-secretase endoprotease activity) ([5]; inhibitor 100 μM): 0% | inhibition of Peak I activity, in words [3]: maximally inhibited; also recorded: completely inhibited | Peak I (%) of control ([3]; inhibitor 100 μM): 0% | inhibition of Peak II activity, in words [4]: maximally inhibited; also recorded: completely inhibited | Peak II (%) of control ([4]; inhibitor 100 μM): 0%

O=S(=O)(F)Cc1ccccc1 [PMSF, phenylmethylsulfonyl fluoride]
inhibition of β-secretase endoprotease activity in the lysate, in words [5]: significantly inhibited | % CONTROL (β-secretase endoprotease activity) ([5]; inhibitor 100 μM): 58%

CC(C)CC(=O)N[C@H](C(=O)N[C@H](C(=O)N[C@@H](CC(C)C)[C@@H](O)CC(=O)N[C@@H](C)C(=O)N[C@@H](CC(C)C)[C@@H](O)CC(=O)O)C(C)C)C(C)C [Pepstatin A] (Isovaleryl-VV[Sta]A[Sta]-OH)
inhibition of β-secretase endoprotease activity in the lysate, in words [5]: slightly inhibited | % CONTROL (β-secretase endoprotease activity) ([5]; inhibitor 10 μM): 78% | inhibition of Peak I activity, in words [3]: did not significantly inhibit; also recorded: slightly inhibited | Peak I (%) of control ([3]; inhibitor 100 μM): 85% | inhibition of Peak II activity, in words [4]: did not significantly inhibit; also recorded: increased the activity | Peak II (%) of control ([4]; inhibitor 100 μM): 132%

CN1CCCC1c1cccnc1 (centres unmarked) [nicotine]
increase in the concentration of Aβ1-40 peptide in the media relative to control media (chromaffin cells; nicotine 10 μM): ~550 fold

O=C(O)c1cc[c]([Hg][OH])cc1 [pHMB]
inhibition of β-secretase endoprotease activity in the lysate, in words [5]: greatly inhibited | % CONTROL (β-secretase endoprotease activity) ([5]; inhibitor 1 mM): 35% | inhibition of Peak I activity, in words [3]: slightly inhibited; also recorded: inhibited less than that of the lysate | Peak I (%) of control ([3]; inhibitor 1 mM): 67% | inhibition of Peak II activity, in words [4]: slightly inhibited; also recorded: inhibited less than that of the lysate | Peak II (%) of control ([4]; inhibitor 1 mM): 68%
